Laboratory results reported in patent publication US8765107B2, “Process for straightening keratin fibres with a heating means and denaturing agents” (L'Oreal, priority 2006, dated 2014).

Experiment: hair relaxing with resorcinol under the conditions of M. Wong et al.
Conditions: resorcinol at a concentration of 40% and at a pH of 7
Description: The use of resorcinol at a concentration of 40% and at a pH of 7 for relaxing the hair has been reported by M. Wong et al.: M. Wong, G. Vis-surel, and J. Epps J. Soc. Cosmet. Chem. (1994), 45, 347-352.

Oc1cccc(O)c1 [resorcinol]
relaxing of the hair: do not relax it, but lead, at the very best, to slight uncurling
